Data on 2 molecules can be found in patent publication US9737582B2, “Method for improving memory of a subject using a composition comprising Cistanche and Ginkgo extracts” (Access Business Group International LLC, priority 2014, dated 2017).

Holding throughout (assay type): cell-based, murine
Test [1] relates to hippocampal cultures. Kind of test: Chronic treatment of hippocampal cultures on MEA neurochips, spontaneous network activity. Conditions: chronic treatment 4-28 days in vitro; 30 μg/ml Cistanche, 300 nM Donepezil. An excerpt: Microelectrode array (MEA) neurochips were utilized to analyze various examples. Specifically, use of MEA neurochips enabled stimulation and recording of bioelectricity with high spatial and temporal resolution, to glean neuroactivity of the Cistanche and Ginkgo extracts, alone and in combination, and with neuronal growth factors.
MEA neurochips are available from NeuroProof GmbH of Rostock, Germany. The electrophysiological properties of compounds can be evaluated using their ability for induction of activity changes in neuronal networks grown on MEA neurochips. Routine monitoring of internal dynamics of mammalian neuronal networks is possible. […]
FIG. 8 illustrates examples of the study to assess chronic effects of Cistanche tubulosa extract on maturation of a neuronal network. […] At 28 days after repeated dose chronic treatment, spontaneous activity was measured, followed by recording of activity to acute NGF concentration-response curve. […]
Multichannel recording delivered single neuron spike data and spike identification and separation were accomplished with a template-matching algorithm in real time, to allow the extracellular recording of action potentials from 256 neurons simultaneously. The action potentials or “spikes” were recorded in spike trains and clustered in bursts, which can be quantitatively described via direct spike train analysis. […]

The subject of test [2] is hippocampal cultures. The experiment in a line: Acute NGF concentration-response on chronically treated hippocampal cultures, MEA neurochips. Conditions: acute mNGF 3 ng/ml to 1 μg/ml. The method, then:
FIG. 8 illustrates examples of the study to assess chronic effects of Cistanche tubulosa extract on maturation of a neuronal network. Hippocampal cultures on MEA neurochips were treated with 30 μg/ml Cistanche, 300 nM Donepezil, or a dimethyl sulfoxide (“DMSO”) vehicle control. At 28 days after repeated dose chronic treatment, spontaneous activity was measured, followed by recording of activity to acute NGF concentration-response curve.
FIG. 19A is a first portion of a heat map and FIG. 19B is a second portion of the heat map. The heat map illustrates concentration dependent effects of acute mouse nerve growth factor (“mNGF”) on network activity of chronically treated hippocampal cultures with the mixtures or components described above for FIG. 18.
The heat map illustrates significant changes on the 60 most representative parameters for each mNGF concentration, from 3 ng/ml to 1 μg/ml. The color code changes in activity parameters according to the percent changes (100:no change), with yellow/red=an increase and green/blue=a decrease.

The test system of test [3] is hippocampal network morphology. The experiment in a line: Immuno-histochemical analysis of recorded cultures, semi-automatic quantitative image analysis. Conditions: chronic 4-28 days in vitro; 30 μg/ml Cistanche, 300 nM Donepezil. The source says:
FIG. 5A is an example image associated with semi-automatic quantification of neurons/image, neurites/image, synapses/image, and synapse/neurite ratio. The image depicts color-merge of synapse (green), neurites (red), nuclei (blue), bar=50 μm.
FIG. 5B is an example image corresponding to synapse channel: color-inverted and analyzed for synapse particles (red labeled after automatic threshold, particle separation and size filter).
FIG. 9 illustrates examples of the study directed at immuno-histochemical analysis. Recorded cultures are further analyzed by immunocytochemistry, fluorescence microscopy and semi-automatic quantitative image analysis. Images are quantified per image for: cell number, neuronal number, neurite number, synapse number, % neurons, neurites per neuron, and synapses per neuron. […]
Recorded cultures were further analyzed by immunocytochemistry, fluorescent microscopy and quantitative image analysis for morphological findings. Semi-automatic quantification (mean±SEM, student's t-test: *p≦0.05; n=3 with 10-20 images each.)
FIG. 21 are images associated with semi-automatic quantification of total cells/field, percentage of neurons, neuritic density, and synaptic number/field. […] The rightmost images correspond to synapse channel: color inverted and analyzed for synapse particles.

As for `COc1cc2c(cc1OC)C(=O)C(CC1CCN(Cc3ccccc3)CC1)C2` (stereo not shown) [Donepezil], the spontaneous network activity result in the test on hippocampal cultures [1] is given as “enhanced the spontaneous network activity”. For the same molecule, the “effect of chronic treatment on the acute NGF response” value in the test on hippocampal cultures [2] (chronic 4-28 days in vitro, 30 μg/ml Cistanche, 300 nM Donepezil, mixture at 10 and 30 μg/ml) was “compensated the inhibitory acute NGF response”. Further, the global synapse number result in test [3] is “increase”.

B1: NGF: mouse nerve growth factor applied acutely to cultures (protein, UniProt P01139 122-241, looked up)
Beta-nerve growth factor: SSTHPVFHMGEFSVCDSVSVWVGDKTTATDIKGKEVTVLAEVNINNSVFRQYFFETKCRASNPVESGCRGIDSKHWNSYCTTTHTFVKALTTDEKQAAWRFIRIDTACVCVLSRKATRRG
modifications: Beta-nerve growth factor
notes: mouse nerve growth factor applied acutely to cultures
Turning to B1, in the test on hippocampal cultures [2] (vehicle-treated cultures), the “effect of acute NGF alone on general activity” value is reported as “inhibition of general activity”.
